In patent US7955623B2, “Pharmaceutical preparations for treating inflammatory diseases” (priority 2008, dated 2011):
“Also recorded” adds a separate entry of the source. Peptide text beside a SMILES is read from it. * marks the point of attachment. Cbz = O=C(OCc1ccccc1)*; OtBu = CC(C)(C)O*

Test system: NF-κB
Assay: Electrophoretic mobility shift assay of TNF-induced NF-κB activation in cell lines
Type: cell-based, human
Details: for Effect on TNF-induced NF-κB-activity of ozonized substance in phosphate-buffered saline: medium concentration in PBS, 100% ozonation state, 1 hr preincubation, TNF 1 ng/mL 15 min; for Inhibition of TNF-induced NF-κB-activity: preincubation 10 μM, 1 hr, n=3
Description: A) BHY cells were preincubated with serum-free O3-medium (15 min; the ozonation state is indicated in %) before TNF was added (20 ng/mL, 45 min) and electrophoretic mobility shift assay was performed (NF-κB and Sp-1 binding). The asterisk marks a control reaction in which a 100-fold concentration of unlabeled consensus oligonucleotide was added. B) Cells were treated with O3-medium (HGF-1, 45 min; HeLa, 1 hr) followed by stimulation with TNF (HGF-1, 5 ng/mL for 45 min; HeLa, 1 ng/mL for 15 min). NF-κB-activity normalized to Sp-1 is shown (densitometric analysis). NF-κB-activity after TNF stimulation following preincubation with non-ozonized medium was defined as 100% (dashed line) (n=3, mean±SD). C) Periodontal ligament tissue debris separated into equal-sized portions was incubated (1 hr, 37° C.) with serum-free non-ozonized medium (indicated by “-”) or O3-medium (100% ozonation state, indicated by “+”) followed by 2 hr incubation in fresh medium without ozone. The samples were shock frozen, homogenized and nuclear extracts prepared. Left: Electrophoretic mobility shift assays were performed (NF-κB and Sp-1 binding). The asterisk marks a control reaction in which a 100-fold concentration of unlabeled consensus oligonucleotide was added. Right: Densitometrically measured NF-κB-activity was normalized to Sp-1 (n=3, mean±SD). […] A) HeLa cells were incubated with O3-phosphate-buffered saline (1 hr) followed by TNF stimulation (1 ng/mL, 15 min). The ozonation state is indicated in %. Electrophoretic mobility shift assay was performed to determine NF-κB-activity as well as Sp-1 binding. B) Cells were preincubated (1 hr) with non-ozonized or ozonized amino acids (medium concentration) dissolved in phosphate-buffered saline (100% ozonation state) followed by stimulation with TNF (1 ng/mL, 15 min). The activation of NF-κB was determined by electrophoretic mobility shift assay. C) Densitometric analysis of the NF-κB-activity normalized to Sp-1 is shown (n=3, mean±SD). NF-κB-activity of cells preincubated with non-ozonized amino acids in phosphate-buffered saline and stimulated with TNF was defined as 100% (dashed line). D) HeLa cells were preincubated with non-ozonized or ozonized glucose (medium concentration) followed by TNF stimulation. The NF-κB-activity compared to Sp-1 binding was determined by electrophoretic mobility shift assay. […] The proteasome inhibitor PSI was from Calbiochem (Darmstadt, Germany). A potential toxicity of culture conditions was monitored by cell morphology/count, trypan-blue-exclusion and the Luminescent-Cell-Viability-Assay (Promega, Mannheim, Germany). […] Aqueous ozone was applied to the cells in form of ozonized medium without fetal calf serum (O3-medium) or ozonized phosphate-buffered saline (O3-phosphate-buffered saline) without/with 1 g/L amino acids or 2 g/L glucose. These solutions were treated with gaseous ozone (75 μg/mL, 15 min) using an ozone generator (Ozonosan-photonic, Dr. […], Germany). This condition, which applied to water would result in a final ozone concentration of 20 μg/mL (saturation point), was defined as the 100% ozonation state. For dose response experiments, the solutions were accordingly diluted. The ozone gas concentration was monitored by a photometer integrated in the ozone generator and confirmed by another ozone gas detector (GM-6000-NZL, Anseros, Tubingen, Germany). The ozone concentrations of the respective aqueous solutions were monitored photometrically ([…], England). […] The prototypic immunoglobulin κ-chain oligonucleotide was used as a probe and labeled with the Klenow fragment of DNA polymerase I (Roche, Penzberg, Germany) together with [α-^32P]dCTP (PerkinElmer-LifeSciences, Brussels, Belgium). The Sp-1 consensus oligonucleotide (Promega) was labeled with [γ-^32P]ATP (PerkinElmer-LifeSciences) and T4-polynucleotide-kinase (Roche). Samples were run on non-denaturing 4% polyacrylamide gels and analyzed by autoradiography.

For `C[C@H](N)C(=O)O` [alanine], the “Effect on TNF-induced NF-κB-activity of ozonized substance in phosphate-buffered saline” value (“Effect on TNF-induced NF-κB-activity” for short) was “slight reduction”.

For `CC[C@H](C)[C@H](NC(=O)OCc1ccccc1)C(=O)N[C@@H](CCC(=O)OC(C)(C)C)C(=O)N[C@@H](C)C(=O)N[C@H](C=O)CC(C)C` [PSI, reference compound] (Cbz-IE(OtBu)AL-aldehyde), the “Inhibition of TNF-induced NF-κB-activity” value (BHY cells) was 68±7% and the “Inhibition of TNF-induced NF-κB-activity” value (HeLa cells) was 75±6%.

`NCC(=O)O` [glycine] was tested, and the “Effect on TNF-induced NF-κB-activity” value was “did not have any effect”.

With `CSCC[C@H](N)C(=O)O` [methionine] the “Effect on TNF-induced NF-κB-activity” value was “clear inhibition”.

`N[C@@H](CS)C(=O)O` [cysteine] was tested, and the “Effect on TNF-induced NF-κB-activity” value was “blocked the NF-κB signal almost completely; also recorded: most effective”.

In the case of `N[C@@H](Cc1c[nH]c2ccccc12)C(=O)O` [tryptophan], the “Effect on TNF-induced NF-κB-activity” value is reported as “blocked the NF-κB signal almost completely; also recorded: most effective”.
